What follows are compounds tested on HBeAg (surrogate marker for cccDNA) in HepDES19 cells (assay: Engineered HepDES19 primary screen assay (HBeAg ELISA)). Details: Hepatitis B virus, 120 h, HBeAg in culture supernatant, 5 days incubation, read-out: IC50 (HepDES19 primary screen assay, inhibition of extracellular HBeAg level).
Format: cell-based, HBV
Description: The assay was employed to screen for cccDNA inhibitors. HepDES19 is a cccDNA-producing cell line. In this cell line, HBeAg in the cell culture supernatant as surrogate marker, as HBeAg production depends on cccDNA level and activity. HepDES19 is an engineered cell line which contains a 1.1 unit length HBV genome, and pgRNA transcription from the transgene is controlled by Tetracycline (Tet). In the absence of Tet, pgRNA transcription will be induced, but HBV e antigen (HBeAg) could not be produced from this pgRNA due to very short leader sequence before the HBeAg start codon and the start codon is disrupted. Only after cccDNA is formed, the missing leader sequence and start codon mutation would be restored from the 3′-terminal redundancy of pgRNA, and then HBeAg could be synthesized. Therefore, HBeAg could be used as a surrogate marker for cccDNA (Zhou, T. et al., Antiviral Res. (2006), 72(2), 116-124; Guo, H. et al., J. Virol. (2007), 81(22), 12472-12484).
HepDES19 cells were seeded at 2×10^6 cells per T150 flask and cultured with the culture medium (Dulbecco's Modified Eagle Medium: Nutrient Mixture F-12 [DMEM-F12, Gibco Cat. 11320-82], 10% Fetal Bovine Serum [FBS, Clontech Cat. 631101], 0.1 mM Non-Essential Amino Acids Solution [NEAA, Gibco Cat. 11140-050], 50 μg/mL Penicillin-Streptomycin [PS, Invitrogen Cat. 15140-163], 500 μg/mL Geneticin [G418, Invitrogen Cat. 10131-027]) containing 3 μg/mL Tet (Sigma, Cat. 87128) for 5 days. Cells were then seeded at 4×10^6 cells per T150 in the same culture medium as described above in the absence of Tet for 8 days. Cells were then harvested and frozen at density of 2×10^6 cells per mL. For compound testing, the frozen cells were thawed and seeded into 96-well plates at a density of 6×10^4 cells per well. At 24 hours after seeding, half log serial dilutions of compounds made with Dimethyl sulfoxide (DMSO, Sigma, Cat. D2650) were further diluted with the same culture medium as described above before they were added to the cells to reach desired final compound concentrations and 1% DMSO concentration. Plates were then incubated at 37° C. for another 5 days before measurement of HBeAg level and cell viability. Intracellular HBeAg level were measured with enzyme-linked immunosorbent assay (ELISA) kit (Shanghai Kehua Diagnostic Medical Products Co., Ltd). Cell viability was assessed using Cell Counting Kit-8 (DonJindo, Cat. CK04-20). IC50 values were derived from the dose-response curve using 4 parameter logistic curve fit method.
The compounds of the present invention were tested for their capacity to inhibit extracellular HBeAg level as described herein.

Compared with `CC(C)COc1ccc(-c2cc(=O)c3cccc(Cl)c3o2)c(OCCN2CC[C@@H](C(=O)O)C2)c1` [Example 039, (3R)-1-[2-[2-(8-chloro-4-oxo-chromen-2-yl)-5-isobutoxy-phenoxy]ethyl]pyrrolidine-3-carboxylic acid], `CC(C)COc1ccc(-c2cc(=O)c3cccc(Cl)c3o2)c(OCCN2CC[C@H](C(=O)O)C2)c1` [Example 040, (3S)-1-[2-[2-(8-chloro-4-oxo-chromen-2-yl)-5-isobutoxy-phenoxy]ethyl]pyrrolidine-3-carboxylic acid] is 2.6-fold higher in IC50: 3480 nM for the first, 9060 nM for the second. The first is the more potent here.

Going from `O=c1cc(-c2ccc(C(F)(F)F)cc2OCCCN([C@H]2C[C@H](C(=O)O)C2)S(=O)(=O)c2ccccc2)oc2c(Cl)cccc12` [Example 142] to `O=c1cc(-c2ccc(C(F)(F)F)cc2OCCCN([C@H]2C[C@@H](C(=O)O)C2)S(=O)(=O)c2ccccc2)oc2c(Cl)cccc12` [Example 141], the IC50 falls from 740 nM to 350 nM (2.1-fold).

Compared with `Cc1ccc(-c2cc(=O)c3cccc(Cl)c3o2)c(OCCN2CCN(C)C2=O)c1` [Example 092, 1-[2-[2-(8-chloro-4-oxo-chromen-2-yl)-5-methyl-phenoxy]ethyl]-3-methyl-imidazolidin-2-one], `Cc1ccc(-c2cc(=O)c3cccc(Cl)c3o2)c(OCCN2CCNC2=O)c1` [Example 091, 1-[2-[2-(8-chloro-4-oxo-chromen-2-yl)-5-methyl-phenoxy]ethyl]imidazolidin-2-one] is 13-fold higher in IC50: 220 nM for the first, 2830 nM for the second.

First: O=C(O)C(=O)NC1(COc2cc(C(F)(F)F)ccc2-c2cc(=O)c3cccc(Cl)c3o2)CC1 [Example 110, 2-[[1-[[2-(8-chloro-4-oxo-chromen-2-yl)-5-(trifluoromethyl)phenoxy]methyl]cyclopropyl]amino]-2-oxo-acetic acid]
Second: O=C(O)C1CC(NCCOc2cc(C(F)(F)F)ccc2-c2cc(=O)c3cccc(Cl)c3o2)C1 (centres unmarked) [Example 038, 3-[2-[2-(8-chloro-4-oxo-chromen-2-yl)-5-(trifluoromethyl)phenoxy]ethylamino]cyclobutanecarboxylic acid]
The IC50 of the first is 1.9-fold lower: 3760 nM for the first, 7240 nM for the second.

Compared with `Cc1ccc(-c2cc(=O)c3cccc(Cl)c3o2)c(O[C@H]2CCN(C(=O)C(=O)O)C2)c1` [Example 132], `Cc1ccc(-c2cc(=O)c3cccc(Cl)c3o2)c(OCCNC(=O)C(=O)O)c1` [Example 121] is 12-fold higher in IC50: 350 nM for the first, 4250 nM for the second.

First: O=c1cc(-c2ccc(C(F)(F)F)cc2OCCCNC2CCS(=O)(=O)CC2)oc2c(Cl)cccc12 [Example 078, 8-chloro-2-[2-[3-[(1,1-dioxothian-4-yl)amino]propoxy]-4-(trifluoromethyl)phenyl]chromen-4-one]
Second: CS(=O)(=O)CCNCCCOc1cc(C(F)(F)F)ccc1-c1cc(=O)c2cccc(Cl)c2o1 [Example 079, 8-chloro-2-[2-[3-(2-methylsulfonylethylamino)propoxy]-4-(trifluoromethyl)phenyl]chromen-4-one]
The IC50 of the first is 10-fold higher: 7800 nM for the first, 780 nM for the second.

Going from `O=C(O)C1CCN(CCOc2cc(Br)ccc2-c2cc(=O)c3cccc(Cl)c3o2)C1` (centres unmarked) [Example 021, 1-[2-[5-bromo-2-(8-chloro-4-oxo-chromen-2-yl)phenoxy]ethyl]pyrrolidine-3-carboxylic acid] to `O=C(O)[C@H]1CCN(CCOc2cc(C(F)(F)F)ccc2-c2cc(=O)c3cccc(Cl)c3o2)C1` [Example 034, (3S)-1-[2-[2-(8-chloro-4-oxo-chromen-2-yl)-5-(trifluoromethyl)phenoxy]ethyl]pyrrolidine-3-carboxylic acid], the IC50 rises from 180 nM to 1120 nM (6.2-fold).

`O=C(O)C(=O)N1CCN(CCOc2cc(C(F)(F)F)ccc2-c2cc(=O)c3cccc(Cl)c3o2)C1=O` [Example 162, 2-[3-[2-[2-(8-chloro-4-oxo-chromen-2-yl)-5-(trifluoromethyl)phenoxy]ethyl]-2-oxo-imidazolidin-1-yl]-2-oxo-acetic acid] and `O=C(O)C1CCN(CCCOc2cc(C(F)(F)F)ccc2-c2cc(=O)c3cccc(Cl)c3o2)C1` (centres unmarked) [Example 012, 1-[3-[2-(8-chloro-4-oxo-chromen-2-yl)-5-(trifluoromethyl)phenoxy]propyl]pyrrolidine-3-carboxylic acid] are within 1.5-fold of each other in IC50: 80 nM for the first, 110 nM for the second.

Compared with `COc1ccc2oc(-c3ccccc3OC)cc(=O)c2c1` [Example F-2, 6-methoxy-2-(2-methoxyphenyl)chromen-4-one, reference compound], `O=C(O)[C@@H]1CCCN1CCOc1ccccc1-c1cc(=O)c2cccc(Cl)c2o1` [Example 032, (2S)-1-[2-[2-(8-chloro-4-oxo-chromen-2-yl)phenoxy]ethyl]pyrrolidine-2-carboxylic acid] is lower in IC50: over 50000 nM for the first, 650 nM for the second. The second is the more potent here.

Going from `CC(NCCOc1cc(C(F)(F)F)ccc1-c1cc(=O)c2cccc(Cl)c2o1)C(N)=O` (centres unmarked) [Example 168, 2-[2-[2-(8-chloro-4-oxo-chromen-2-yl)-5-(trifluoromethyl)phenoxy]ethylamino]propanamide] to `CC(C)[C@@H](NCCCOc1cc(C(F)(F)F)ccc1-c1cc(=O)c2cccc(Cl)c2o1)C(=O)O` [Example 009, (2R)-2-[3-[2-(8-chloro-4-oxo-chromen-2-yl)-5-(trifluoromethyl)phenoxy]propylamino]-3-methyl-butanoic acid], the IC50 rises from 1140 nM to 7470 nM (6.6-fold). The first is the more potent here.

First: O=C(O)CC1CCN(CCCOc2cc(C(F)(F)F)ccc2-c2cc(=O)c3cccc(Cl)c3o2)C1 (centres unmarked) [Example 008, 2-[1-[3-[2-(8-chloro-4-oxo-chromen-2-yl)-5-(trifluoromethyl)phenoxy]propyl]pyrrolidin-3-yl]acetic acid]
Second: CN(CCCOc1cc(C(F)(F)F)ccc1-c1cc(=O)c2cccc(Cl)c2o1)CC(=O)O [Example 134, 2-[3-[2-(8-chloro-4-oxo-chromen-2-yl)-5-(trifluoromethyl)phenoxy]propyl-methyl-amino]acetic acid]
The IC50 of the first is 48-fold lower: 170 nM for the first, 8170 nM for the second.

Going from `O=c1cc(-c2ccc(C(F)(F)F)cc2OCCCNS(=O)(=O)c2ccccc2)oc2c(Cl)cccc12` [Example 097] to `O=C(O)CN(CCCOc1cc(C(F)(F)F)ccc1-c1cc(=O)c2cccc(Cl)c2o1)S(=O)(=O)c1ccccc1` [Example 143], the IC50 rises from 1160 nM to 2420 nM (2.1-fold).

`O=c1cc(-c2ccc(Br)cc2OCCN[C@H]2CC[C@@H](C(=O)O)CC2)oc2c(Cl)cccc12` [Example 055, cis-4-[2-[5-bromo-2-(8-chloro-4-oxo-chromen-2-yl)phenoxy]ethylamino]cyclohexanecarboxylic acid] and `CCOC(=O)NCCOc1cc(Br)ccc1-c1cc(=O)c2cccc(Cl)c2o1` [Example 106] are within 1.5-fold of each other in IC50: 980 nM for the first, 1100 nM for the second.

Compared with `Cc1cc(-c2cc(=O)c3cccc(Cl)c3o2)c(OCCN2CC(C(=O)O)C2)cc1Cl` [Example 061, 1-[2-[5-chloro-2-(8-chloro-4-oxo-chromen-2-yl)-4-methyl-phenoxy]ethyl]azetidine-3-carboxylic acid], `Cc1ccc(-c2cc(=O)c3cccc(Cl)c3o2)c(OCCN2CC(C(=O)O)C2)c1` [Example 054, 1-[2-[2-(8-chloro-4-oxo-chromen-2-yl)-5-methyl-phenoxy]ethyl]azetidine-3-carboxylic acid] is 24-fold lower in IC50: 5710 nM for the first, 240 nM for the second. The second is the more potent here.

`CS(=N)(=O)C1CCN(CCOc2cc(C(F)(F)F)ccc2-c2cc(=O)c3cccc(Cl)c3o2)CC1` (centres unmarked) [Example 094, 8-chloro-2-[2-[2-[4-(methylsulfonimidoyl)-1-piperidyl]ethoxy]-4-(trifluoromethyl)phenyl]chromen-4-one] and `CS(=O)(=O)N1CCN(CCCOc2cc(C(F)(F)F)ccc2-c2cc(=O)c3cccc(Cl)c3o2)CC1` [Example 081, 8-chloro-2-[2-[3-(4-methylsulfonylpiperazin-1-yl)propoxy]-4-(trifluoromethyl)phenyl]chromen-4-one] are within 1.5-fold of each other in IC50: 9790 nM for the first, 7110 nM for the second.

First: O=C(O)C1CCN(CCOc2ccccc2-c2cc(=O)c3cc(F)cc(Cl)c3o2)C1 (centres unmarked) [Example 043, 1-[2-[2-(8-chloro-6-fluoro-4-oxo-chromen-2-yl)phenoxy]ethyl]pyrrolidine-3-carboxylic acid]
Second: O=C(O)C1CC(N(CCCOc2cc(C(F)(F)F)ccc2-c2cc(=O)c3cccc(Cl)c3o2)S(=O)(=O)C2CC2)C1 (centres unmarked) [Example 139, 3-[3-[2-(8-chloro-4-oxo-chromen-2-yl)-5-(trifluoromethyl)phenoxy]propyl-cyclopropylsulfonyl-amino]cyclobutanecarboxylic acid]
The IC50 of the first is 7.2-fold lower: 1420 nM for the first, 10200 nM for the second.

— patent publication US20220169639A1 (priority 2018, published 2022)
